According to patent US9290463B2, “Radiolabeled compounds and uses thereof” (THE TRUSTEES OF COLUMBIA UNIVERSITY IN THE CITY OF NEW YORK, priority 2010, dated 2016):

How the values were obtained:
[1] = target: 5-HT1AR (Rattus norvegicus (Rat), UniProt P19327); assay: Endogenous changes of 5-HT measured with Compound E uptake and binding in pretreated rats; type: in vivo; details: for SBR (specific binding ratio) of Compound E, change versus saline / SUV of Compound E, change versus saline: hippocampus, 90 min after Compound E i.v., pretreated rats
5-HT1AR, sequence (P19327 whole entry): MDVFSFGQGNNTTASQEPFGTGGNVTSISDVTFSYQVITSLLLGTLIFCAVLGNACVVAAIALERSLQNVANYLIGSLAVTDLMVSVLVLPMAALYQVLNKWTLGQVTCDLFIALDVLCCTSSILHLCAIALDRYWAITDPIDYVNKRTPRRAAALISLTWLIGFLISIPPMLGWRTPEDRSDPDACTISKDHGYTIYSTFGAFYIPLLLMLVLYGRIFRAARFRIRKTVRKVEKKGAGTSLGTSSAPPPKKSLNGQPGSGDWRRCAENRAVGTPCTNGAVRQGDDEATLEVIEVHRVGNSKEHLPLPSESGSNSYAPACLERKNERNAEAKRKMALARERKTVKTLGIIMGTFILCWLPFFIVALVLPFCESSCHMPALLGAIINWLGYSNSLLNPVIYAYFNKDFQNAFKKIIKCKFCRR
Protocol: Endogenous changes of 5-HT measurement with Compound E: Rats were pretreated according to the group below, injected with 0.1 MBq (0.18±0.02 nmol/kg, i.v.) of Compound E, then killed by decapitation after 90 minutes. Blood was collected from the trunk, the brain was extracted and the striatum, hippocampus, frontal cortex and cerebellum were dissected. Brain regions were dissolved, plasma was separated from the blood and radioactivity concentrations were determined.
The uptake and binding of Compound E after injection differed by treatment condition. […] Changes in the specific binding ratio (SBR=(activity in ROI−activity in Cerebellum)/activity in Cerebellum) were significant in Fenfluramine 1 and 2.

[2] = target: human 5-HT1A receptor (Homo sapiens (Human), UniProt P08908); assay: Inhibition of [3H]-8-OH-DPAT binding in membranes from CHO-h5-HT1A cells; details: 5 nM [3H]-8-OH-DPAT, read-out: Binding affinity value (Ki)
human 5-HT1A receptor, sequence (P08908 whole entry): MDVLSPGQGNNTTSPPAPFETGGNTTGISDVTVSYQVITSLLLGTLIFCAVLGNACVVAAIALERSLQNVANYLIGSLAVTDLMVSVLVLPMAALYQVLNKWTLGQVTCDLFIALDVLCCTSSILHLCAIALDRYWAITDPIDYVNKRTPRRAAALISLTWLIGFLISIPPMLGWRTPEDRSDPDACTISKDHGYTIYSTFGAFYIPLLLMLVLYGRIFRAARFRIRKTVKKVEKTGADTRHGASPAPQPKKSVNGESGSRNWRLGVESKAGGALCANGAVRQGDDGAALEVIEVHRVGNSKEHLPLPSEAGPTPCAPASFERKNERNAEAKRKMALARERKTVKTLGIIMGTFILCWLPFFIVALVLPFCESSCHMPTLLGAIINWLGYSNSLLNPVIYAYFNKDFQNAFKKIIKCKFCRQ
Protocol: In Vitro Agonist Binding Assay.
Preparation of Membrane Fractions from CHO-h5-HT1A Cells. Membranes from CHO cells stably expressing the human 5-HT1A receptor at a density of 8 pmol/mg membrane protein with 5-HT2c receptor background were prepared. Cells were grown in DMEM/F-12 medium supplemented with 5% fatal bovine serum, 50 ig/mL geneticin, and 50 ig/mL hygromycin B in a humidified atmosphere of 5% CO2 until they reached confluence. Cells were harvested by centrifugation (800 g for 5 min) and homogenized using a polytron homogenizer (Polytron, CH-6010 Kreiens-Lu, Brinkman Instrument, Westbury, N.Y.) in buffer containing 20 mM HEPES, pH7.4, 3 mM MgCl2, and a cocktail of protease inhibitors (Sigma-Aldrich, St. Louis, Mo.) at 1:2000 dilution. The homogenate was centrifuged (Beckman Optima LE80K Ultracentrifuge) at 100 000 g for 15 min at 4° C. The pellet was suspended in the same buffer and recentrifuged. The final pellet was suspended in assay buffer containing 20 mM HEPES, pH 7.4, 3 mM MgCl2, 100 mM NaCl, and a mixture of protease inhibitors and stored at −70° C. Protein concentration was determined by detergent compatible colorimetric assay using DC Protein Assay Reagents as recommended by the manufacturer (Bio-Rad, Hercules, Calif.).
Inhibition of [^3H]-8-OH-DPAT Binding by A-D or 5-HT in Membranes. For inhibition experiments, the incubation medium consisted of 20 mM HEPES, pH 7.4, 4 mM CaCl2, 5 nM [^3H]-8-OH-DPAT, and 30 μg of membrane protein in the presence of different concentrations of […] or 5-HT. The assay mixture was incubated for 10 min at 30° C. The reaction was terminated by rapid filtration through Whatman GF/B filters followed by three washes with ice cold 20 mM HEPES buffer, pH 7.4, using a cell harvester (Brandel, M-24R Gaitherburg, Md.). Bound radioactivity was determined by liquid scintillation spectrometry (Beckman).

[3] = target: 5-HT1A (Rattus norvegicus (Rat), UniProt P19327); assay: Ex vivo saturation binding of Compound E in rat brain regions; details: hippocampus and frontal cortex, rats 90 min after i.v. injection, one binding-site model
5-HT1A, sequence (P19327 whole entry): as the sequence (P19327 whole entry) above
Protocol: Ex vivo studies of compound E: Awake rats were injected in the tail vein with Compound E shown below:
Total mass injected was between 0.02 nmol/kg and 500 nmol/kg. All rats were decapitated after 90 minutes, based on time activity experiments with Compound E. The brains were extracted and brain regions were dissected, and then dissolved in Solvable (Packard). Blood was collected, and the plasma was separated. Radioactivity concentrations were determined by scintillation counting.
It was possible to saturate the 5-HT1A binding of Compound E in the frontal cortex and hippocampus. Data were best fitted with a one binding-site model. […] The cerebellum and plasma were unsaturable and no binding model could be fitted to the data.

| Compound | SBR (specific binding ratio) of Compound E, change versus saline [1] | SUV of Compound E, change versus saline [1] | Change in uptake of Compound E by treatment condition ([1]; in words) | Ki [2] [nM] | other results |
| --- | --- | --- | --- | --- | --- |
| Isoflurane [Isoflurane, 1-3% (Inhaled) + Saline] | −4.6% | +52.1% | Significant changes in uptake | – | – |
| CN(C)CCCC1(c2ccc(F)cc2)OCc2cc(C#N)ccc21 (centres unmarked) [Citalopram] | −12.2% | +4.8% | – | – | – |
| NC(Cc1ccc(Cl)cc1)C(=O)O (centres unmarked) [Single Housed + pCPA, pCPA] | −15.1% | −14.1% | Significant changes in uptake | – | – |
| Cn1c(=O)cnn(CCCCN2CCN(c3cccc(Br)n3)CC2)c1=O | – | – | – | 4 | – |
| [3H]COc1ccccc1N1CCN(CCCCn2ncc(=O)n(C)c2=O)CC1 [drawing 34] | – | – | – | 0.15 | – |
| Cn1c(=O)cnn(CCCCN2CCN(c3cccc(I)n3)CC2)c1=O | – | – | – | 5.5 | – |
| CCNC(C)Cc1cccc(C(F)(F)F)c1 (centres unmarked) [Fenfluramine] | +32.8% | −0.1% | Significant changes in uptake | – | Change in specific binding ratio of Compound E by treatment condition ([1]; in words): significant |
| Cn1c(=O)cnn(CCCCN2CCN(c3ccccc3Br)CC2)c1=O | – | – | – | 6 | – |
| [3H]COc1ccccc1N1CCN(CCCCn2ncc(=O)n(C)c2=O)CC1 [Compound E] | – | – | – | – | Kd [3]: 17 to 18 nM |
